# Values of other authors, collected in patent US8349353B2, “Controlled release cytotoxic agent compositions and methods for the treatment of otic disorders” (Otonomy, Inc., priority 2008, dated 2013).
# Test system: V2-R
# Settings: infusion into the scala tympani
smiles,measurement,value
Cc1ccccc1C(=O)Nc1ccc(C(=O)N2CCCC(N(C)C)c3ccccc32)cc1 (stereo not shown) [OPC-31260],Meniere's disease symptoms,marked reduction of Meniere's disease symptoms
